According to EP0334055A2, “Substituted benzoxazinones, several processes and intermediates for their preparation and their use as herbicides” (BAYER AG, priority 1988, dated 1989):

Assays:
Testpflanzen [1] = assay: Pre-emergence test (herbicidal damage to test plants); format: in vivo; conditions: damage rated after three weeks against untreated control, compared with Vergleichssubstanz (A) (Oxadiazone/Ronstar)
From the text: Lösungsmittel: 5 Gewichtsteile Aceton Emulgator: 1 Gewichtsteil Alkylarylpolyglykolether
(§1) Zur Herstellung einer zweckmäßigen Wirkstoffzubereitung vermischt man 1 Gewichtsteil Wirkstoff mit der angegebenen Menge Lösungsmittel, gibt die angegebene Menge Emulgator zu und verdünnt das Konzentrat mit Wasser auf die gewünschte Konzentration.
Samen der Testpflanzen werden in normalen Boden ausgesät und nach 24 Stunden mit der Wirkstoffzubereitung begossen. Dabei hält man die Wassermenge pro Flächeneinheit zweckmäßigerweise konstant. Die Wirkstoffkonzentration in der Zubereitung spielt keine Rolle, entscheidend ist nur die Aufwandmenge des Wirkstoffs pro Flächeneinheit. Nach drei Wochen wird der Schädigungsgrad der Pflanzen bonitiert in % Schädigung im Vergleich zur Entwicklung der unbehandelten Kontrolle. Es bedeuten: 0 % = keine Wirkung (wie unbehandelte Kontrolle) 100 % = totale Vernichtung

Testpflanzen [2] = assay: Post-emergence test (herbicidal damage to test plants); format: in vivo; conditions: plants 5 - 15 cm, 2000 l Wasser/ha, damage rated after three weeks, compared with Vergleichssubstanz (A) (Oxadiazone/Ronstar)
From the text: Lösungsmittel: 5 Gewichtsteil Aceton Emulgator: 1 Gewichtsteil Alkylarylpolyglykolether
as §1
Mit der Wirkstoffzubereitung spritzt man Testpflanzen, welche eine Höhe von 5 - 15 cm haben so, daß die jeweils gewünschten Wirkstoffmengen pro Flächeneinheit ausgebracht werden. Die Konzentration der Spritzbrühe wird so gewählt, daß in 2000 l Wasser/ha die jeweils gewünschten Wirkstoffmengen ausgebracht werden. Nach drei Wochen wird der Schädigungsgrad der Pflanzen bonitiert in % Schädigung im Vergleich zur Entwicklung der unbehandelten Kontrolle.
Es bedeuten: 0 % = keine Wirkung (wie unbehandelte Kontrolle) 100 % = totale Vernichtung

Compound	Wirksamkeit gegenüber der Vergleichssubstanz (A) (Testpflanzen [1])	Wirksamkeit gegenüber der Vergleichssubstanz (A) (Testpflanzen [2])
2-(3,4-Dihydro-3-oxo-4-propargyl-2H-1,4-benzoxazinyl)-3-chloro-4,5,6,7-tetrahydro-2H-indazol [Beispiel 31]	deutliche Überlegenheit	deutliche Überlegenheit
7-Fluor-6-trimethylpyrazolyl-4-propargyl-3,4-dihydro-3-oxo-2H-1,4-benzoxazin [Beispiel 4]	deutliche Überlegenheit	deutliche Überlegenheit
CC(C)(C)c1nn(-c2cc3c(cc2F)OCC(=O)N3)c(=O)o1 [Beispiel 3, 7-Fluor-6-(2-tert-butyl-5-oxo-4,5-dihydro-1H-1,3,4-oxadiazol-3-yl)-3,4-dihydro-3-oxo-2H-1,4-benzoxazin]	deutliche Überlegenheit	deutliche Überlegenheit
C#CCN1C(=O)COc2cc(F)c(-n3nc(C(C)(C)C)oc3=O)cc21 [Beispiel 5, 7-Fluor-4-propargyl-6-(2-tert-butyl-5-oxo-4,5-dihydro-1H-1,3,4-oxadiazol-3-yl)-3,4-dihydro-3-oxo-2H-1,4-benzoxazin]	deutliche Überlegenheit	deutliche Überlegenheit
C#CCN1C(=O)COc2cc(F)c(-n3nc(C)c(Cl)c3C)cc21 [Beispiel 24, 7-Fluor-6-(3,5-dimethyl-4-chlorpyrazol)-4-propargyl-3,4-dihydro-3-oxo-2H-1,4-benzoxazin]	deutliche Überlegenheit	–
O=C1COc2ccc(-n3nc4c(c3Cl)CCCC4)cc2N1 [Beispiel 30, 2-(3,4-dihydro-3-oxo-2H-1,4-benzoxazinyl)-3-chloro-4,5,6,7-tetrahydro-2H-indazol]	deutliche Überlegenheit	–
